Reference: US20260284074A1, “ENT1 Inhibitors in Combination with Checkpoint Inhibitors” (iTeos Belgium SA, priority 2023, published 2026)
Each block holds one molecule with its values, some of them ahead of it.

Key:
[1] = Dynamic vapor sorption (DVS); format: physicochemical
Protocol: (§1) METHOD A: In Example 5, approximately 5-15 mg of sample was placed into a mesh vapor sorption balance pan and loaded into either a DVS Intrinsic or DVS Advantage dynamic vapor sorption balance by Surface Measurement Systems. The sample was subjected to a ramping profile from 40-90% relative humidity (RH) at 10% increments, maintaining the sample at each step until a stable weight had been achieved (dm/dt 0.004%, minimum step length 30 minutes, maximum step length 500 minutes) at 25° C. After completion of the sorption cycle, the sample was dried using the same procedure to 0% RH and then a second sorption cycle back to 40% RH was carried out. Two cycles were performed. The weight change during the sorption/desorption cycles were plotted, allowing the hygroscopic nature of the sample to be determined. XRPD analysis was then carried out on the residual solid.
as §1, with “B:” for “A:”, “1,” for “5,”, “10-20” for “5-15”, “determined.” for “determined. XRPD analysis was then carried out on the residual solid.”

[2] = system: human T cells; assay: [3H]adenosine uptake in activated human T cells; format: cell-based
Description: Applicant observed that activated human T cells took up [3H]adenosine, and this uptake was reduced in the presence of the selective ENT1 inhibitor dilazep, confirming that ENT1 is the dominant transporter involved in adenosine uptake in T cells.
Human T cells were activated for 2 days in the presence of Compound 1 or dilazep. The cells were then washed and used in a [^3H]adenosine uptake experiment. […] (See FIG. 27A.)

[3] = system: human T cells; assay: T cell proliferation by CFSE dilution in the presence of ATP; format: cell-based; conditions: human T cells activated in presence of 100 μM ATP, CFSE dilution, read-out: IC50, restoration of T cell proliferation
Protocol: Human T cells were activated in the presence of 100 μM ATP and dilazep or Compound 1 and proliferation was monitored by CarboxyFluoroscein Succinimidyl Ester (CFSE) dilution. […] (See FIG. 27B.)

[4] = system: MDA-MB-231 cells; assay: MDA-MB-231 subcutaneous tumor model in humanized NCG mice; format: in vivo, mouse; conditions: day 51; Compound 1 30 mg/kg i.p. twice a day; nivolumab 10 mg/kg i.p. every 5 days
Protocol: The anti-tumor therapeutic efficacy of Compound 1 monotherapy, nivolumab monotherapy, and Compound 1-nivolumab combination therapy was assessed in ‘humanized’ mice with subcutaneous tumors resulting from the subcutaneous injection of MDA-MB-231 cells, a human triple-negative breast cancer cell line.
Human cell line xenograft experiments were performed at Transcure (France) and all associated animal procedures were reviewed and approved by the local ethics committee. The experiment was carried out with the NOD-Prkdc^em26cd52Il2rg^em26cd22/NjuCrl immunodeficient mouse strain (NCG from Charles River Laboratories, Wilmington, MA, USA). Four-week-old immunodeficient NCG mice were engrafted with cord-blood-derived human CD34^+ hematopoietic stem and progenitor cells (French Blood Institute, Paris, France) 2 days after chemical myeloablative treatment. Fourteen weeks after cell injection, engraftment level was monitored with the analysis of human CD45^+ cells among total blood leukocytes by flow cytometry (Attune, Life Technologies/Thermo Fisher Scientific, Waltham, MA, USA). […]
All the animals used were monitored daily, checking their clinical signs of distress and body weight and tumors were measured three times a week using an electronic caliper. The tumor volume was determined by applying the formula Length×(Width)^2×0.5. […]

Molecule: COc1cc(C(=O)O[C@@H]2CCCOc3cc(cc(OC)c3OC)C(=O)NCCCN3CCCN(CC2)CC3)cc(OC)c1OC (single isomer, unassigned)
- Moisture uptake (DVS) ([1]; RH raised to 80% from 10%, 25° C.): 1.7%
- Moisture uptake (DVS) ([1]; between 0 and 10% RH, 25° C.): about 6.3%

- IC50 ([2]; Homo sapiens, T-cell, T cells activated 2 days in presence of compound, washed, [3H]adenosine uptake, read-out: IC50, inhibition of uptake of adenosine into human T cells): 1.2 nM
Molecule: COc1cc(C(=O)OCCCN2CCCN(CCCOC(=O)c3cc(OC)c(OC)c(OC)c3)CC2)cc(OC)c1OC [dilazep]
- [3H]adenosine uptake by activated human T cells ([2]; in the presence of the inhibitor): reduced
- IC50 [3]: 2.4 nM

Molecule: nivolumab [anti-PD-1, reference compound]
- Tumor volume compared with vehicle group [4]: not statistically significantly different

Molecule: COc1cc(C(=O)O[C@@H]2CCCOc3cc(cc(OC)c3OC)C(=O)NCCCN3CCCN(CC2)CC3)cc(OC)c1OC
- Water uptake (DVS) ([1]; at 80% RH, second sorption cycle, after likely formation of amorphous material): 3.3%
- Water uptake (DVS) ([1]; between 40-80% RH, first sorption cycle): 0.9%
- Hygroscopicity (DVS) ([1]; first sorption cycle, 25° C.): slightly hygroscopic
- Water uptake (DVS) ([1]; further uptake between 80-90% RH, first sorption cycle): 3.8%
